Patent US9321751B2, “Piperine derivatives and uses thereof” (INDUSTRY-ACADEMIC COOPERATION FOUNDATION, YONSEI UNIVERSITY, priority 2012, dated 2016)

What was measured:
[1] = tested on: 3T3-L1 cells as preadipocytes; assay: Inhibition of adipocyte differentiation, Oil-Red O staining; type: cell-based, Mouse; details: treated every other day from day 0 of differentiation, 14 days culture, different concentrations
Procedure: Mouse adipocyte line (3T3-L1) was used to evaluate effects of various piperine-based compounds on adipocyte differentiation and growth. 3T3-L1 cells as preadipocytes were dispensed on a 12-well plate, and cultured in a 5% CO2 incubator using DMEM medium supplemented with 1% penicillin-streptomycin, 1% non-essential amino acids, and 10% FBS. The cultured 3T3-L1 cells were made into differentiated adipocytes by being cultured for […] in a medium containing 0.5 mM […], 1 μM dexamethasone (MDI), and 1 μg/mL insulin, and then differentiated into mature adipocytes by being further cultured in a medium 1 μg/mL insulin. After that, they were further cultured for 10 days while changing the DMEM culture liquid every other day to obtain fully differentiated adipocytes.
The culture liquid was treated with 13 new compounds with different concentrations every other day from day 0 when DMI was added to the 3T3-L1 cells for differentiation. Derivative compounds were dissolved in DMSO before the use thereof, and a negative control group added with only DMSO was included in the experiment.
After the culturing for a total of 14 days, the culture liquids were removed when the cells were fully differentiated, and fat spheres contained in the differentiated adipocytes were stained. For this, the cells were washed 2 times with phosphate buffered saline (PBS), immobilized in 10% buffered neutral formalin for 1 hour, washed again once with PBS, stained for 1 hour by adding 1 mL of Oil-Red-O, which specifically stains fats red, to the 12-well plate, and then washed 2 times with distilled water. In order to measure the level of triglyceride contained in the differentiated 3T3-L1 cells, the stained cells were dissolved in 1 mL of iso-butanol and the OD value was measured at 600 nm.

C57BL/6J mice [2] = assay: Oral glucose tolerance test in mice fed test diets; type: in vivo; details: 8 weeks of diet
Procedure: After 8 weeks of experimental diet, the oral glucose tolerance test was performed on all groups. After 6 hours of fasting, the mice were orally administered with glucose (2 g glucose/10 ml of distilled water/kg body weight). Before the oral administration of glucose, at 15, 30, 60, and 120 min after the administration of glucose, blood samples were taken from the tail cut (by removing the distal 1 cm of the tail) and blood glucose concentrations were measured using a blood glucose monitoring device.

C57BL/6J mice [3] = assay: Body weight and visceral fat weight of mice fed high-fat test diets (LJ-2498 study); type: in vivo; details: 0.05% in high-fat diet, 10 weeks
Procedure: The obesity-inducing diet used in this example was high-fat diet (HFD: 40% fat calorie, 17 g lard+3% corn oil/100 g diet). LJ-2498 chemical (JL-2498) or piperine (Pin)-containing diet had the same composition as HFD, except that LJ-2498 chemical was included at 0.05%. As control drugs, metformin (Metf) as a diabetic treatment in a level of 0.1% and sibutramine as an obesity treatment in a level of 0.1% were added to a high-fat diet. A normal diet group (Chow) was fed with commercial rodent feedstuff.
(§1) 5-week-old male C57BL/6J mice (Orient, Korea) were accustomed to the laboratory environment for 1 week while feeding solid feed. Then, they were randomly divided into normal diet group, high-fat diet control group and test group of 3 types and control drug group of 2 types. They were bred for a total of 10 weeks (n=8/group). The diet was given between 10 and 11 a.m. every day together with water. Diet intake was measured every day and body weight was measured every week. In order to avoid transient body weight increase after feed intake, body weight was measured 2 hours after removing the feed. After fasting the test animal for at least 12 hours and anesthetizing with diethyl ether, blood, liver and visceral fat (epididymal fat, perirenal fat, mesenteric fat and retroperitoneal fat) were taken and weighed after washing with 0.1 M PBS (pH 7.4). Blood taken from the abdominal aorta was centrifuged at 1000×g for 15 minutes to separate the serum.

C57BL/6J mice [4] = assay: Biochemical analysis of blood (plasma lipids, ALT, AST) of mice fed test diets; type: in vivo; details: 0.05% in high-fat diet, 10 weeks
Procedure: as §1
After 10 weeks of breeding, total cholesterol, triglyceride and glucose levels in the plasma and lipid levels in the liver tissue were measured as follows. Total cholesterol, triglyceride, free fatty acid and glucose levels in the plasma were measured twice for each using a commercially available kit (Bio Clinical System). The activity of ALT (alanine aminotransferase) and AST (aspartate aminotransferase) used as liver function indicator were measured twice for each using a commercially available kit (Bio Clinical System, Korea).

C57BL/6J mice [5] = assay: Liver weight and lipid level in liver tissues of mice fed test diets; type: in vivo; details: 0.05% in high-fat diet, 10 weeks
Procedure: as §1
Lipids were extracted from the liver tissue according to Folch et al.'s method Folch J et al., J Biol. Chem. 226: 497-509 (1957)). After adding 1 mL of distilled water to 0.25 g of liver tissue, the liver tissue was homogenized using a Polytron homogenizer (IKA-Werke GmbH & Co., Ultra-Turrax, Staufen, Germany). After adding 5 mL of chloroform:methanol solution (2:1, v/v) to the homogenate and mixing well, the mixture was centrifuged at 1000×g for 10 minutes. After adding 2 mL of chloroform:methanol solution (2:1, v/v) again to the supernatant, the same procedure was repeated to completely separate the lipid components of the liver. After adding 3 mL of chloroform:methanl:0.05% CaCl2 (3:48:47, v/v/v) solution to the remaining pellets and mixing well for 1 minute, followed by centrifugation at 1000×g for 10 minutes, the resulting pellets were completely dried with nitrogen gas. The dried lipids were dissolved in 1 mL of methanol and then analyzed.
The same kit (Bio Clinical System) as that used for the plasma analysis was used to measure the triglyceride and cholesterol levels of the liver tissue.

C57BL/6J mice [6] = assay: Body and visceral fat-pad weights of mice fed high-fat test diets (LJ-2529 study); type: in vivo; details: 14 weeks; for decrease of daily food intake: supplemented high-fat diet
Procedure: The obesity-inducing control diet used in the test was high-fat diet (HFD: 40% fat calorie, 17 g lard+3% corn oil/100 g diet). Diets supplemented with LJ-2529 compound or piperine had the same composition as HFD, except that LJ-2529 was included at 0.05%.
5-week-old male C57BL/6J mice (Orient, Korea) were accustomed to the laboratory environment for 1 week while feeding solid feed. […] The diet was given between 10 and 11 a.m. every day together with water. Food intake was measured every day and body weight was measured once a week. In order to avoid transient body weight increase after feed intake, body weight was measured 2 hours after removing the feed. After fasting the test animal for at least 12 hours and anesthetizing with diethyl ether, blood, liver and visceral fat (epididymal fat, perirenal fat, mesenteric fat and retroperitoneal fat) were taken and weighed after washing with 0.1M PBS (pH 7.4). Blood taken from the abdominal aorta was centrifuged at 1000×g for 15 minutes for the separation of plasma.

CC(=O)OC/C=C/c1ccc2c(c1)OCO2 [LJ-2196, (E)-3-(benzo[d][1,3]dioxo-5-yl)allyl acetate]
differentiation of the preadipocytes 3T3L1 [1]: reduced the differentiation of the preadipocytes 3T3L1 in a concentration-dependent manner

C(=N\c1ccccc1)/c1ccc2c(c1)OCO2 [LJ-2477, (E)-N-(benzo[d][1,3]dioxol-5-ylmethylene)aniline]
differentiation of the preadipocytes 3T3L1 [1]: reduced the differentiation of the preadipocytes 3T3L1 in a concentration-dependent manner

O=C(/C=C/C=C/c1ccc2c(c1)OCO2)N1CCCC1 [LJ-2487, (2E,4E)-5-(benzo[d][1,3]dioxol-5-yl)-1-(pyrrolidin-1-yl)penta-2,4-dien-1-one]
differentiation of the preadipocytes 3T3L1 [1]: reduced the differentiation of the preadipocytes 3T3L1 in a concentration-dependent manner

COc1ccc(OC)c(/C=C/C=C/C(=O)N2CCCCC2)c1 [LJ-2488, (2E,4E)-5-(2,5-dimethoxy-phenyl)-1-(piperidin-1-yl) penta-2,4-dien-1-one]
differentiation of the preadipocytes 3T3L1 [1]: reduced the differentiation of the preadipocytes 3T3L1 in a concentration-dependent manner

COc1cccc(/C=C/C=C/C(=O)N2CCCCC2)c1OC [LJ-2489, (2E,4E)-5-(2,3-dimethoxy-phenyl)-1-(piperidin-1-yl) penta-2,4-dien-1-one]
differentiation of the preadipocytes 3T3L1 [1]: reduced the differentiation of the preadipocytes 3T3L1 in a concentration-dependent manner
reduction of area under the curve (ACU) for blood glucose concentrations as compared with HFD (C57BL/6J mice [2]; 2 g glucose/kg oral): 17%

COc1ccc(/C=C/C=C/C(=O)N2CCCCC2)c(OC)c1 [LJ-2490, (2E,4E)-5-(2,4-dimethoxy-phenyl)-1-(piperidin-1-yl) penta-2,4-dien-1-one]
differentiation of the preadipocytes 3T3L1 [1]: reduced the differentiation of the preadipocytes 3T3L1 in a concentration-dependent manner

COc1ccc(/C=C/C=C/C(=O)N2CCCCC2)cc1OC [LJ-2491, (2E,4E)-5-(3,4-dimethoxy-phenyl)-1-(piperidin-1-yl) penta-2,4-dien-1-one]
differentiation of the preadipocytes 3T3L1 [1]: reduced the differentiation of the preadipocytes 3T3L1 in a concentration-dependent manner

COc1cc(/C=C/C=C/C(=O)N2CCCCC2)cc(OC)c1 [LJ-2492, (2E,4E)-5-(3,5-dimethoxy-phenyl)-1-(piperidin-1-yl) penta-2,4-dien-1-one]
differentiation of the preadipocytes 3T3L1 [1]: reduced the differentiation of the preadipocytes 3T3L1 in a concentration-dependent manner

Cc1ccc(C)c(/C=C/C=C/C(=O)N2CCCCC2)c1 [LJ-2497, Trans-(2E,4E)-5-(2,5-dimethylphenyl)-1-(piperidin-1-yl) penta-2,4-dien-1-one]
differentiation of the preadipocytes 3T3L1 [1]: reduced the differentiation of the preadipocytes 3T3L1 in a concentration-dependent manner

Cc1ccc(C)c(/C=C/C=C\C(=O)N2CCCCC2)c1 [LJ-2498, Cis-(2E,4E)-5-(2,5-dimethyl-phenyl)-1-(piperidin-1-yl) penta-2,4-dien-1-one]
differentiation of the preadipocytes 3T3L1 [1]: reduced the differentiation of the preadipocytes 3T3L1 in a concentration-dependent manner
epididymal fat weight per body weight as compared to HFD (C57BL/6J mice [3]): significantly lower
lower accumulated body weight gain as compared to HFD (C57BL/6J mice [3]): 23%
lower total visceral fat weight compared to HFD (C57BL/6J mice [3]): 28%
mesenteric fat weight per body weight as compared to HFD (C57BL/6J mice [3]): significantly lower
perirenal fat weight per body weight as compared to HFD (C57BL/6J mice [3]): significantly lower
retroperitoneal fat weight per body weight as compared to HFD (C57BL/6J mice [3]): significantly lower
visceral fat weight as compared to HFD group (C57BL/6J mice [3]): significantly lower
decreased plasma activity of ALT as compared to HFD (C57BL/6J mice [4]): 27%
decreased plasma activity of AST as compared to HFD (C57BL/6J mice [4]): 15%
lower plasma level of free fatty acid as compared to HFD (C57BL/6J mice [4]): 25%
lower plasma level of total cholesterol as compared to HFD (C57BL/6J mice [4]): 20%
lower plasma level of triglyceride as compared to HFD (C57BL/6J mice [4]): 21%
insulin resistance improving effect versus control drugs metformin and sibutramine (C57BL/6J mice [2]): more excellent than those of control drugs
blood glucose concentration after oral glucose as compared with HFD (C57BL/6J mice [2]; 2 g glucose/kg, 15, 30, 60, 120 min): further reduced over all the time zones
reduction of fasting blood glucose as compared with HFD (C57BL/6J mice [2]; 6 hours fasting): 20%
decrease of liver weight compared to HFD (C57BL/6J mice [5]): 23%
decreased level of cholesterol in liver tissue as compared to HFD (C57BL/6J mice [5]): 41%
decreased level of triglyceride in liver tissue as compared to HFD (C57BL/6J mice [5]): 29%
liver tissue appearance as compared to HFD (C57BL/6J mice [5]; images): darker and smaller liver tissue

O=c1[nH]c2ccc(/N=C/c3cc4c(cc3Br)OCO4)cc2[nH]1 [LJ-2527]
differentiation of the preadipocytes 3T3L1 [1]: reduced the differentiation of the preadipocytes 3T3L1 in a concentration-dependent manner

O=c1[nH]c2ccc(/N=C/c3c(Br)ccc4c3OCO4)cc2[nH]1 [LJ-2529]
differentiation of the preadipocytes 3T3L1 [1]: reduced the differentiation of the preadipocytes 3T3L1 in a concentration-dependent manner
decrease of FER (feed efficiency ratio) compared with HFD (C57BL/6J mice [6]; 0.05% in high-fat diet): 60%
decrease of body weight gain as compared to HFD (C57BL/6J mice [6]; 0.05% in high-fat diet): 60%
epididymal fat-pad weight as compared to HFD (C57BL/6J mice [6]; 0.05% in high-fat diet): significantly reduced
mesenteric fat-pad weight as compared to HFD (C57BL/6J mice [6]; 0.05% in high-fat diet): significantly reduced
perirenal fat-pad weight as compared to HFD (C57BL/6J mice [6]; 0.05% in high-fat diet): significantly reduced
retroperitoneal fat-pad weight as compared to HFD (C57BL/6J mice [6]; 0.05% in high-fat diet): significantly reduced
reduction of total visceral fat weight versus HFD (C57BL/6J mice [6]; 0.05% in high-fat diet, P<0.001): 15%
decrease of daily food intake (C57BL/6J mice [6]): 24%

S=c1[nH]c2ccc(/N=C/c3c(Br)ccc4c3OCO4)cc2[nH]1 [SKKU-S-02]
differentiation of the preadipocytes 3T3L1 [1]: reduced the differentiation of the preadipocytes 3T3L1 in a concentration-dependent manner

O=C(/C=C/C=C/c1ccc2c(c1)OCO2)N1CCCCC1 [piperine, Piperine]
body weight gain change (signed) versus HFD (C57BL/6J mice [6]; piperine-supplemented high-fat diet): −48%
decrease of daily food intake (C57BL/6J mice [6]): 27%
